Molecular target: Recombinant Human Poly(ADP-Ribose) Polymerase (PARP), PARP-1 (Homo sapiens (Human), UniProt P09874)
Conditions: read-out: PARP-1 (Ki); Table 1; text calls the values EC50s

Chain of Recombinant Human Poly(ADP-Ribose) Polymerase (PARP), PARP-1 (P09874 whole entry): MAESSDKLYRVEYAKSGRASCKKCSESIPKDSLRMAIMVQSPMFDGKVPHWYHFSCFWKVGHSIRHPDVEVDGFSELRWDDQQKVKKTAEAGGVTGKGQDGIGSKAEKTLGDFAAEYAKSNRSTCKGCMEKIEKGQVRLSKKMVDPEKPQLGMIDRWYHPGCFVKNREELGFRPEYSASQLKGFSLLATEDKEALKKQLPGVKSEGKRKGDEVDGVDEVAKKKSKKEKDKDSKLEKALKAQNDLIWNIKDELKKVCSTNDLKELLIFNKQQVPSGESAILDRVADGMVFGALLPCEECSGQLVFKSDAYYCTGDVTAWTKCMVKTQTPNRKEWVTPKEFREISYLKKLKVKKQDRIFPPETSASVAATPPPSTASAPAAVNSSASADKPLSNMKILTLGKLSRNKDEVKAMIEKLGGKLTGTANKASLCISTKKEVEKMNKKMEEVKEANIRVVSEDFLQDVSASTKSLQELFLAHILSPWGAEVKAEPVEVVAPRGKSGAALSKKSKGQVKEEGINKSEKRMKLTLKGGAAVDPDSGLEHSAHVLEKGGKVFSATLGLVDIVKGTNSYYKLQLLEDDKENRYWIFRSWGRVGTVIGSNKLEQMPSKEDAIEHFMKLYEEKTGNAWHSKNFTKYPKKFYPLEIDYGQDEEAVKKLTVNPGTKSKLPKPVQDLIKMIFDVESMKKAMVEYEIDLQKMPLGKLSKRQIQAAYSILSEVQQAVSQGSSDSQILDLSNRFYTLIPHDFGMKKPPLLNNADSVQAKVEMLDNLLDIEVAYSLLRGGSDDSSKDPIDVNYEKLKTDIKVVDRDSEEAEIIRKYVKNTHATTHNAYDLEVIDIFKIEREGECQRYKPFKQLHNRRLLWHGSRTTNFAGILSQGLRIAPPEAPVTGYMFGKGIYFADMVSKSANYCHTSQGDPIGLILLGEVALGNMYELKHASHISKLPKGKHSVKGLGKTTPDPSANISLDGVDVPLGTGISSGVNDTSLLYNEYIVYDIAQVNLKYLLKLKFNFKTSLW

First: CC(=O)Nc1cccc(-c2cccc(C(C)c3n[nH]c(=O)c4c3CCCC4)c2)c1 (stereo not drawn) [Example 286, N-(3′-(1-(4-oxo-3,4,5,6,7,8-hexahydrophthalazin-1-yl)ethyl)-1,1′-biphenyl-3-yl)acetamide]
Second: CC(c1cccc(-c2cccc(C(=O)NCCN(C)C)c2)c1)c1n[nH]c(=O)c2c1CCCC2 (stereo not drawn) [Example 287, N-(2-(dimethylamino)ethyl)-3′-(1-(4-oxo-3,4,5,6,7,8-hexahydrophthalazin-1-yl)ethyl)-1,1′-biphenyl-3-carboxamide]
The Ki of the first is 13-fold lower: 58 nM for the first, 771 nM for the second. The first binds more tightly here.

Compared with `CC(Cc1n[nH]c(=O)c2c1CCCC2)c1cccc(C(=O)O)c1` (stereo not drawn) [Example 288, 3-(1-methyl-2-(4-oxo-3,4,5,6,7,8-hexahydrophthalazin-1-yl)ethyl)benzoic acid], `CC(Cc1n[nH]c(=O)c2c1CCCC2)c1ccc(F)c(-c2cccc(C(N)=O)c2)c1` (stereo not drawn) [Example 295, 2′-fluoro-5′-(1-methyl-2-(4-oxo-3,4,5,6,7,8-hexahydrophthalazin-1-yl)ethyl)-1,1′-biphenyl-3-carboxamide] is 2.1-fold higher in Ki: 431 nM for the first, 912 nM for the second. The first binds more tightly here.

Going from `COc1ccc(C(=O)CCC(=O)Nc2cc(Cc3n[nH]c(=O)c4c3CCCC4)ccc2F)cc1` [Example 289, N-(2-fluoro-5-((4-oxo-3,4,5,6,7,8-hexahydrophthalazin-1-yl)methyl)phenyl)-4-(4-methoxyphenyl)-4-oxobutanamide] to `O=C(CCC(=O)c1ccc(Oc2ccccc2)cc1)Nc1cccc(CCc2n[nH]c(=O)c3c2CCCC3)c1` [Example 321, 4-oxo-N-(3-(2-(4-oxo-3,4,5,6,7,8-hexahydrophthalazin-1-yl)ethyl)phenyl)-4-(4-phenoxyphenyl)butanamide], the Ki rises from 0.7 nM to 223 nM (320-fold).

Going from `CC1=C(C)C(=O)N(c2cc(Cc3n[nH]c(=O)c4c3CCCC4)ccc2F)C1=O` [Example 290, 1-(2-fluoro-5-((4-oxo-3,4,5,6,7,8-hexahydrophthalazin-1-yl)methyl)phenyl)-3,4-dimethyl-1H-pyrrole-2,5-dione] to `CC1(C)CC(=O)N(c2cc(Cc3n[nH]c(=O)c4c3CCCC4)ccc2F)C1=O` [Example 299, 1-(2-fluoro-5-((4-oxo-3,4,5,6,7,8-hexahydrophthalazin-1-yl)methyl)phenyl)-3,3-dimethylpyrrolidine-2,5-dione], the Ki rises from 1 nM to 4 nM (4-fold). The first binds more tightly here.

Going from `O=C1C2CC2C(=O)N1c1cc(Cc2n[nH]c(=O)c3c2CCCC3)ccc1F` (stereo not drawn) [Example 291, 3-(2-fluoro-5-((4-oxo-3,4,5,6,7,8-hexahydrophthalazin-1-yl)methyl)phenyl)-3-azabicyclo(3.1.0)hexane-2,4-dione] to `O=C1C2CCCCC2C(=O)N1c1cc(Cc2n[nH]c(=O)c3c2CCCC3)ccc1F` (stereo not drawn) [Example 298, 2-(2-fluoro-5-((4-oxo-3,4,5,6,7,8-hexahydrophthalazin-1-yl)methyl)phenyl)hexahydro-1H-isoindole-1,3(2H)-dione], the Ki rises from 0.7 nM to 2 nM (2.9-fold).

First: O=C(COc1ccccc1)N1CCNC(Cc2n[nH]c(=O)c3c2CCCC3)C1 (stereo not drawn) [Example 292, 4-((4-(phenoxyacetyl)piperazin-2-yl)methyl)-5,6,7,8-tetrahydrophthalazin-1(2H)-one]
Second: O=C(Nc1cccc(CCc2n[nH]c(=O)c3c2CCCC3)c1)C1CCCN(C(=O)OCc2ccccc2)C1 (stereo not drawn) [Example 322, benzyl 3-(((3-(2-(4-oxo-3,4,5,6,7,8-hexahydrophthalazin-1-yl)ethyl)phenyl)amino)carbonyl)piperidine-1-carboxylate]
The Ki of the first is 4.8-fold lower: 116 nM for the first, 556 nM for the second. The first binds more tightly here.

`O=C(CCC(=O)c1ccccc1)Nc1cccc(CCc2n[nH]c(=O)c3c2CCCC3)c1` [Example 294, 4-oxo-N-(3-(2-(4-oxo-3,4,5,6,7,8-hexahydrophthalazin-1-yl)ethyl)phenyl)-4-phenylbutanamide] and `O=C(CNC(=O)OCc1ccccc1)Nc1cccc(CCc2n[nH]c(=O)c3c2CCCC3)c1` [Example 320, benzyl 2-oxo-2-(3-(2-(4-oxo-3,4,5,6,7,8-hexahydrophthalazin-1-yl)ethyl)phenylamino)ethylcarbamate] are within 1.5-fold of each other in Ki: 204 nM for the first, 165 nM for the second.

Compared with `CC(=O)Nc1cccc(-c2cc(C(C)Cc3n[nH]c(=O)c4c3CCCC4)ccc2F)c1` (stereo not drawn) [Example 296, N-(2′-fluoro-5′-(1-methyl-2-(4-oxo-3,4,5,6,7,8-hexahydrophthalazin-1-yl)ethyl)-1,1′-biphenyl-3-yl)acetamide], `CC(Cc1n[nH]c(=O)c2c1CCCC2)c1ccc(F)c(-c2cccc(CNS(C)(=O)=O)c2)c1` (stereo not drawn) [Example 297] is 2.1-fold higher in Ki: 683 nM for the first, 1440 nM for the second.

Going from `O=C1CCCC(=O)N1c1cc(Cc2n[nH]c(=O)c3c2CCCC3)ccc1F` [Example 303, 1-(2-fluoro-5-((4-oxo-3,4,5,6,7,8-hexahydrophthalazin-1-yl)methyl)phenyl)piperidine-2,6-dione] to `O=c1[nH]nc(Cc2ccc(F)c(N3CCCS3(=O)=O)c2)c2c1CCCC2` [Example 305, 4-(3-(1,1-dioxidoisothiazolidin-2-yl)-4-fluorobenzyl)-5,6,7,8-tetrahydrophthalazin-1(2H)-one], the Ki rises from 0.8 nM to 3 nM (3.8-fold).

`O=C(NCc1cccs1)c1cccc(Cc2n[nH]c(=O)c3c2CCCC3)c1` [Example 309, 3-((4-oxo-3,4,5,6,7,8-hexahydrophthalazin-1-yl)methyl)-N-(thien-2-ylmethyl)benzamide] and `O=C(NCc1ccsc1)c1cccc(Cc2n[nH]c(=O)c3c2CCCC3)c1` [Example 310, 3-((4-oxo-3,4,5,6,7,8-hexahydrophthalazin-1-yl)methyl)-N-(thien-3-ylmethyl)benzamide] are within 1.5-fold of each other in Ki: 29 nM for the first, 26 nM for the second.

First: O=C(NCc1cccnc1)c1cccc(Cc2n[nH]c(=O)c3c2CCCC3)c1 [Example 311, 3-((4-oxo-3,4,5,6,7,8-hexahydrophthalazin-1-yl)methyl)-N-(pyridin-3-ylmethyl)benzamide]
Second: O=C(NCc1ccncc1)c1cccc(Cc2n[nH]c(=O)c3c2CCCC3)c1 [Example 312, 3-((4-oxo-3,4,5,6,7,8-hexahydrophthalazin-1-yl)methyl)-N-(pyridin-4-ylmethyl)benzamide]
The Ki of the first is 2.3-fold lower: 58 nM for the first, 131 nM for the second. The first binds more tightly here.

Compared with `CN(C)CCNC(=O)c1cccc(Cc2n[nH]c(=O)c3c2CCCC3)c1` [Example 313, N-(2-(dimethylamino)ethyl)-3-((4-oxo-3,4,5,6,7,8-hexahydrophthalazin-1-yl)methyl)benzamide], `CN(C)CCCNC(=O)c1cccc(Cc2n[nH]c(=O)c3c2CCCC3)c1` [Example 314, N-(3-(dimethylamino)propyl)-3-((4-oxo-3,4,5,6,7,8-hexahydrophthalazin-1-yl)methyl)benzamide] is 3-fold lower in Ki: 95 nM for the first, 32 nM for the second. The second binds more tightly here.

`O=C(NCCCN1CCCC1)c1cccc(Cc2n[nH]c(=O)c3c2CCCC3)c1` [Example 315, 3-((4-oxo-3,4,5,6,7,8-hexahydrophthalazin-1-yl)methyl)-N-(3-pyrrolidin-1-ylpropyl)benzamide] and `O=C(NCCCN1CCCCC1)c1cccc(Cc2n[nH]c(=O)c3c2CCCC3)c1` [Example 316, 3-((4-oxo-3,4,5,6,7,8-hexahydrophthalazin-1-yl)methyl)-N-(3-piperidin-1-ylpropyl)benzamide] are within 1.5-fold of each other in Ki: 23 nM for the first, 34 nM for the second.

Compared with `O=C(NCCCN1CCOCC1)c1cccc(Cc2n[nH]c(=O)c3c2CCCC3)c1` [Example 317, N-(3-morpholin-4-ylpropyl)-3-((4-oxo-3,4,5,6,7,8-hexahydrophthalazin-1-yl)methyl)benzamide], `O=C(Nc1nccs1)c1cccc(Cc2n[nH]c(=O)c3c2CCCC3)c1` [Example 319, 3-((4-oxo-3,4,5,6,7,8-hexahydrophthalazin-1-yl)methyl)-N-1,3-thiazol-2-ylbenzamide] is 3.8-fold higher in Ki: 25 nM for the first, 94 nM for the second. The first binds more tightly here.

Going from `O=C(NCCc1c[nH]c2ccccc12)c1cccc(Cc2n[nH]c(=O)c3c2CCCC3)c1` [Example 318, N-(2-(1H-indol-3-yl)ethyl)-3-((4-oxo-3,4,5,6,7,8-hexahydrophthalazin-1-yl)methyl)benzamide] to `CCCc1ccccc1NC(=O)c1cccc(Cc2n[nH]c(=O)c3c2CCCC3)c1` [Example 332, 3-((4-oxo-3,4,5,6,7,8-hexahydrophthalazin-1-yl)methyl)-N-(2-propylphenyl)benzamide], the Ki rises from 28 nM to 635 nM (23-fold).

Going from `Cc1ccc(OCC(=O)Nc2cccc(CCc3n[nH]c(=O)c4c3CCCC4)c2)cc1` [Example 323, 2-(4-methylphenoxy)-N-(3-(2-(4-oxo-3,4,5,6,7,8-hexahydrophthalazin-1-yl)ethyl)phenyl)acetamide] to `CCc1cccc(NC(=O)c2cccc(Cc3n[nH]c(=O)c4c3CCCC4)c2)c1` [Example 330, N-(3-ethylphenyl)-3-((4-oxo-3,4,5,6,7,8-hexahydrophthalazin-1-yl)methyl)benzamide], the Ki falls from 237 nM to 99 nM (2.4-fold).

`CCc1ccccc1NC(=O)c1cccc(Cc2n[nH]c(=O)c3c2CCCC3)c1` [Example 329, N-(2-ethylphenyl)-3-((4-oxo-3,4,5,6,7,8-hexahydrophthalazin-1-yl)methyl)benzamide] and `CC(C)c1ccccc1NC(=O)c1cccc(Cc2n[nH]c(=O)c3c2CCCC3)c1` [Example 333, N-(2-isopropylphenyl)-3-((4-oxo-3,4,5,6,7,8-hexahydrophthalazin-1-yl)methyl)benzamide] are within 1.5-fold of each other in Ki: 789 nM for the first, 892 nM for the second.

`CCc1ccc(NC(=O)c2cccc(Cc3n[nH]c(=O)c4c3CCCC4)c2)cc1` [Example 331] and `CC(C)c1ccc(NC(=O)c2cccc(Cc3n[nH]c(=O)c4c3CCCC4)c2)cc1` [Example 334, N-(4-isopropylphenyl)-3-((4-oxo-3,4,5,6,7,8-hexahydrophthalazin-1-yl)methyl)benzamide] are within 1.5-fold of each other in Ki: 140 nM for the first, 191 nM for the second.

Going from `CC(C)(C)c1cccc(NC(=O)c2cccc(Cc3n[nH]c(=O)c4c3CCCC4)c2)c1` [Example 335, N-(3-tert-butylphenyl)-3-((4-oxo-3,4,5,6,7,8-hexahydrophthalazin-1-yl)methyl)benzamide] to `CC(C)(C)c1ccc(NC(=O)c2cccc(Cc3n[nH]c(=O)c4c3CCCC4)c2)cc1` [Example 336, N-(4-tert-butylphenyl)-3-((4-oxo-3,4,5,6,7,8-hexahydrophthalazin-1-yl)methyl)benzamide], the Ki rises from 122 nM to 363 nM (3-fold).

With `O=C(Nc1ccc(-c2ccccc2)cc1)c1cccc(Cc2n[nH]c(=O)c3c2CCCC3)c1` [Example 337, N-1,1′-biphenyl-4-yl-3-((4-oxo-3,4,5,6,7,8-hexahydrophthalazin-1-yl)methyl)benzamide] the Ki was 124 nM.

From US9283222B2 (priority 2006, dated 2016)
